In one test the target is Cannabinoid receptor 1 (Homo sapiens, UniProt P21554). Kind of test: (§1) cAMP Assay: CHO cells expressing human CB1 or CB2 receptors are seeded 17-24 hours prior to the experiment 50.000 cells per well in a black 96 well plate with flat clear bottom (Corning Costar #3904) in DMEM (Invitrogen No. 31331), 1×HT supplement, with 10% fetal calf serum and incubated at 5% CO2 and 37° C. in a humidified incubator. The growth medium was exchanged with Krebs Ringer Bicarbonate buffer with 1 mM IBMX and incubated at 30° C. for 30 min. Compounds were added to a final assay volume of 100 μl and incubated for 30 min at 30° C. Using the cAMP-Nano-TRF detection kit the assay (Roche Diagnostics) was stopped by the addition of 50 μl lysis reagent (Tris, NaCl, 1.5% Triton X100, 2.5% NP40, 10% NaN3) and 50 μl detection solutions (20 μM mAb Alexa700-cAMP 1:1, and 48 μM Ruthenium-2-AHA-cAMP) and shaken for 2 h at room temperature. The time-resolved energy transfer is measured by a TRF reader (Evotec Technologies GmbH), equipped with a ND:YAG laser as excitation source. The plate is measured twice with the excitation at 355 nm and at the emission with a delay of 100 ns and a gate of 100 ns, total exposure time 10s at 730 (bandwidth 30 nm) or 645 nm (bandwidth 75 nm), respectively. Format: functional, cell-based.
Chain of Cannabinoid receptor 1 (P21554 whole entry): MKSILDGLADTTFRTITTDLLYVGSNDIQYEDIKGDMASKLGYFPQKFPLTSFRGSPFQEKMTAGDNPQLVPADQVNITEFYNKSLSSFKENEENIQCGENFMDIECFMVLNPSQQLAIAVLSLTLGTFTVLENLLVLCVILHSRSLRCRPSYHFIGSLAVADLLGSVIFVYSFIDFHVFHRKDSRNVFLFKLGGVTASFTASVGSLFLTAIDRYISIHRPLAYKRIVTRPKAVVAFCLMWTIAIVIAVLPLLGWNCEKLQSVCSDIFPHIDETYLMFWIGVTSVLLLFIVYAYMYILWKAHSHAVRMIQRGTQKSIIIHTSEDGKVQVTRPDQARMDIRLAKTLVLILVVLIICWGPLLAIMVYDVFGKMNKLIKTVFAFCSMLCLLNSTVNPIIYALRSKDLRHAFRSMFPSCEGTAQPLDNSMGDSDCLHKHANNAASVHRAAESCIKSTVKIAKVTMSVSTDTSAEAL

The target in another test is Cannabinoid receptor 2 (Homo sapiens, UniProt P34972). Described as §1. Format: functional, cell-based.
Chain of Cannabinoid receptor 2 (P34972 whole entry): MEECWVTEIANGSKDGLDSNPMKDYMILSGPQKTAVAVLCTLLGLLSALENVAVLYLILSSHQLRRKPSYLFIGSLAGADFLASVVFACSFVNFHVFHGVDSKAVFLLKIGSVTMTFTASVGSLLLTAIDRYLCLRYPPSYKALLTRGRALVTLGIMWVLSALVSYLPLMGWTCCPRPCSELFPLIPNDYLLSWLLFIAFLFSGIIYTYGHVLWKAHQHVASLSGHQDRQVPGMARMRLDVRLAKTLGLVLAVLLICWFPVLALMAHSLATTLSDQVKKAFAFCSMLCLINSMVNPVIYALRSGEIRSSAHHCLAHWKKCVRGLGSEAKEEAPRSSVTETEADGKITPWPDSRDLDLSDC

For the compound `O=C(NN1CCCCC1)c1cnc(C2CC2)c(OCC2CC2)n1`, the EC50 on Cannabinoid receptor 1 was more than 10 µM; on Cannabinoid receptor 2 it was 0.327 µM.
As to `CC(C)(O)[C@H](CC1CC1)NC(=O)c1cnc(C2CC2)c(OCC2CC2)n1`, the EC50 on Cannabinoid receptor 1 is more than 10 µM; on Cannabinoid receptor 2, 0.198 µM.
The corresponding values for `CNC(=O)C(CC1CCC1)NC(=O)c1cnc(N2CC(F)(F)C2)c(OCC2CC2)n1` (centres undefined) are more than 10 µM and 0.0517 µM.
The corresponding values for `O=C(NC1(CO)CCCCC1)c1cnc(N2CC(F)(F)C2)c(OCC2CC2)n1` are more than 10 µM and 0.0018 µM.
As to `CC(C)(CCc1ccncc1)NC(=O)c1cnc(C2CC2)c(OCC2CC2)n1`, a half-maximal response on Cannabinoid receptor 2 (EC50) required 0.28 µM.

The values are drawn from ChEMBL document CHEMBL3886855, “Pyrazine derivatives” (2016).
